Reference: patent US20050203575A1, “Skin microactivation system and method” (Unilever Home & Personal Care USA, Division of Conopco, Inc., priority 2004, published 2005)

System: cellular retinoic acid binding protein II (CRABP II)
Test: Clinical trial: CRABP II in human epidermis after topical retinol with or without microneedle treatment (Western blotting)
Type: in vivo
Conditions: once a day for four days
Source text: Ten subjects between the ages of 25 and 50 were recruited into a clinical trial to test the efficacy of microneedles 58 after having given informed consent to a protocol approved by an internal review board. Needles 58 that are acupuncture needles (Seirin, 0.12 mm×30 mm) were fixed in narrow diameter plastic tubes, i.e., positioning collars 60, with adhesive so that needle tips protruded approximately 250 microns beyond the end of positioning collar 60. This arrangement prevented excessive penetration during use. The protocol provided for the application on the skin of the lower back of a vehicle alone or vehicle containing either 0.05% or 0.1% retinol. In vehicle alone sites and 0.05% retinol sites microneedles 58 were applied at a density of 100 strikes per square centimeter. Adhesive rings with an internal area of 1.5 square centimeters were used to define the treatment areas. Microneedle device 10 was held in the operator's hand and lightly impacted on the subject's skin. Aliquots of twenty microliters of treatment solution were applied to the relevant sites immediately after microneedling. Sites were treated once a day for four days. On the fifth day epidermal samples were taken with an abrasive probe and placed in extraction buffer (see above). Samples were analysed with polyacrylamide gel electrophoresis and Western blotting for the presence of cellular retinoic acid binding protein II (CRABP II), a protein considered to be a marker for retinoid activity in skin.

CC1=C(/C=C/C(C)=C/C=C/C(C)=C/CO)C(C)(C)CCC1 [retinol]
CRABP II expression in epidermis, microneedle + 0.05% retinol versus 0.05% retinol alone (microneedles 100 strikes per square centimeter + 0.05% retinol, P<0.05): increased CRABP II expression above that seen with 0.05% retinol alone
CRABP II expression elevation, microneedles + 0.05% retinol versus 0.1% retinol alone (microneedles 100 strikes per square centimeter + 0.05% retinol, statistically significant): greater than that associated with the 0.1% retinol alone treatment
CRABP II expression in epidermis (vehicle alone, 0.05% or 0.1% retinol on skin of lower back, sampled on fifth day): dose-dependent increase in CRABP II
